Laboratory results reported in patent US10383948B2, “Anti-cMet antibody drug conjugates and methods for their use” (AbbVie Inc., priority 2016, dated 2019).

Key:
[1] = tested on: NCI-H820; experiment: Cytotoxicity assay (CellTiter-Glo, 6 days); assay type: cell-based, human; conditions: NCI-H820 lung cancer; relative to untreated control at ≤1 μg/mL in a six day proliferation
Method: (§1) Tumor cells were plated at 2000-5000 cells/well in 180 μL growth medium containing 10% FBS in 96-well plates, and cultured at 37° C. in a humidified incubator with 5% C02. The following day, titrations of antibodies or ADCs in 20 μL were added and cells were incubated for 6 days. Cell viability was determined using a CellTiter-Glo Luminescent Cell Viability Assay (Promega) according to the manufacturer's instructions.
as §1, with “of” for “of antibodies or”

[2] = tested on: NHBE (normal bronchial epithelial); experiment: Cytotoxicity assay (CellTiter-Glo, 6 days); assay type: cell-based; conditions: NHBE (bronchial epithelial) non-tumor; relative to untreated control at ≤1 μg/mL in a six day proliferation
Method: as §1, with “instructions. A non-binding, irrelevant negative control ADC conjugated to MMAE was also included in all assays to confirm that cell killing was antigen dependent.” for “instructions.”
as §1, with “of” for “of antibodies or”, “instructions. A non-binding, irrelevant negative control ADC conjugated to MMAE was also included in all assays to confirm that cell killing was antigen-dependent.” for “instructions.”

[3] = tested on: NCI-H441 lung cancer xenografts; experiment: NCI-H441 xenograft efficacy; assay type: in vivo, mice; conditions: both every four days, six doses; dose-dependent; FIG. 11B
Excerpt: Food and water were available ad libitum.
Each experimental group included 8-10 animals.

[4] = tested on: EBC-1 ABT-700R xenograft tumors; experiment: ABT-700-refractory xenograft efficacy; assay type: in vivo, mice; conditions: EBC-1, ABT-700 followed by ABBV-399; FIG. 12C
[5] = tested on: metastatic solid tumors; experiment: Phase 1 monotherapy, best response (RECIST 1.1); assay type: in vivo, human; conditions: all treated patients
Excerpt: Three to 6 subjects will be enrolled in each cohort and dosed once every 21 (one dose per 21-day Cycle) or 14 (2 doses per 28-day Cycle) days until disease progression or unacceptable toxicity to determine the maximum tolerated dose (MTD) or maximally administered dose (MAD). Dose limiting toxicity (DLT) definitions will be used to make decisions regarding dose-escalation. […] On the dose-expansion, subjects with advanced solid tumors with cMet overexpression, MET exon 14 mutation or MET amplification will be enrolled.
Dosing began at 0.15 mg/kg and escalated to 0.3, 0.6, 1.2, 1.8, 2.4, 3.0 and 3.3 mg/kg in subsequent cohorts as tolerated. Alternative doses (intermediate or higher) or dosing schedules may be employed based on clinical safety and PK data. A dose of 2.7 mg/kg was also utilized based on the clinical safety and PK data. […] It is not administered as an intravenous push or bolus.
Baseline radiographic tumor assessments with CT (or MRI) of the head, chest, abdomen, and pelvis will be obtained no more than 28 days prior to Cycle 1 Day 1. CT scan (or MRI) will then be repeated approximately every 6 weeks after start of therapy to evaluate the extent of tumor burden. Radiographic tumor assessments will continue until disease progression documented by imaging, start of a new anti cancer therapy, death or withdrawal of consent. Response evaluation will be based on RECIST version 1.1. […]

[6] = tested on: cMet+ NSCLC; experiment: Phase 1 monotherapy in cMet+ NSCLC, best response; assay type: in vivo, human
Method: A dose of 2.7 mg/kg was chosen for dose-expansion based primarily on safety and tolerability. For enrollment in this phase of the study, NSCLC subjects were screened for cMet overexpression using an IHC assay utilizing the CONFIRM anti-total cMet (SP44) Rabbit Monoclonal Primary Antibody kit purchased from Ventana (REF #790-4430). Tissue samples were scored by determining the percentages of target tissue cells staining at various intensity levels of low to high, i.e. IHC score of 0, 1+, 2+ or 3+ or an H-score of 0 to 149, 150-224, or 225-300. The scoring can be done either manually or via the aid of a computer. Details of the IHC assay and scoring are described in Example 17.

[7] = tested on: NSCLC adenocarcinoma; experiment: Phase 1 overall response versus H score; assay type: in vivo, human; conditions: IHC scores of 225 or greater
Excerpt: (§2) The IHC score was obtained using the protocol described in Example 17.

[8] = tested on: NSCLC squamous cell carcinoma; experiment: Phase 1 overall response versus H score; assay type: in vivo, human; conditions: three patients, 2.7 mg/kg once every 3 weeks, IHC scores between 150 to 224
Excerpt: as §2

[9] = tested on: Hs746T gastric cancer xenografts; experiment: Hs746T xenograft efficacy
Method: Female SCID, SCID-Beige and nude mice were obtained from Charles River (Wilmington, Mass.) and housed at ten mice per cage. The body weight upon arrival was 20-22 g. Food and water were available ad libitum. Mice were acclimated to the animal facilities for a period of at least one week prior to commencement of experiments. Animals were tested in the light phase of a 12-hr light: 12-hr dark schedule (lights on at 06:00 hours).
Tumor volumes are depicted as mean±S.E.M.

Substance: ABBV-399: ADC comprised of the cMet targeting antibody ABT-700 conjugated to MMAE through a valine citrulline (vc) linker
- Maximal Killing [1]: 87%
- Maximal Killing [2]: 10%
- in vivo activity, comparison [3]: more active than ABT-700 alone
- tumor response [4]: remained sensitive
- best response: progressive disease ([5]; 17/40): 42.5%
- best response: stable disease ([5]; 20/40): 50%
- radiographic progressive disease ([6]; 2/16 treated patients): 12.5%
- partial responses ([6]; 3/16 treated patients): 19%
- stable disease ([6]; 6/16 treated patients): 37.5%
- response ([7]; four patients, 2.7 mg/kg Q3W and erlotinib): partial responses
- response ([7]; two patients, once every two weeks): either a partial response or a complete response
- response [8]: partial responses
- in vivo activity, comparison ([9]; ABT-700 every seven days, ABBV-399 every four days, dose-dependent, FIG. 11A): more active than ABT-700 alone
- tumor response ([9]; tumors relapsed after ABT-700 treatment, FIG. 12A): regression
